Patent US6897239B1, “Use of misoprostol and/or metabolites of misoprostol for treating sexual dysfunction in women” (Lavipharm S.A., priority 1998, dated 2005)
Like-named read-outs stand apart in the source and are kept apart here.

Legend:
solubility in water = type: physicochemical
Experimental: (§1) As had already been mentioned, misoprostol is an extremely hydrophile molecule compared with other prostaglandins of E1 series (e.g. with alprostadil which can be dissolved in alcohol but her solubility in water is only 8000 mcg/100 ml at 35° C.).

[1] = tested on: women with sexual dysfunction; experiment: external application of misoprostol to the clitoris or/and to the vagina; type: in vivo; conditions: for local vasodilation after external application: used externally to the clitoris or/and to the vagina
Text: Because of the local vasodilation is caused tumescence of the clitoris, intence bleeding of the vagina and feeling of sexual desire. Simultaneously, in women with anorgasmia of various causes, promote after masturbation or sexual intercourse, the coming of orgasm.
Method of application: 0.1 (or more, depending on responce) are applied to the clitoris or/and to the vagina.
as §1

patients = conditions: cited from earlier work
[2] = at 35° C.; cited from earlier work

Row | Structure (SMILES) | solubility in water (solubility in water) | time of appearance of the result ([1]; external application of the example forms) [min] | systematic undesirable effects ([1]; high once only doses >1000 mcg to the clitoris or to the vagina) | misoprostol action in the presence of Polysorbate "80" ([1]; in the presence of Polysorbate "80") | change of misoprostol activity as a function of pH ([1]; pH of the pharmacotechnical form) | undesirable effects in the presence of a-cyclodextrine ([1]; presence of a-cyclodextrine) | local vasodilation after external application [1] | carcinogenic or teratogenic effect (patients; in vivo) | effect on uterus (patients; in vivo) | undesirable effects in oral therapy (patients; oral therapy) | solubility in water [2] [mcg/100 ml]
1 | CCCCC(C)(O)C/C=C/[C@H]1[C@H](O)CC(=O)[C@@H]1CCCCCCC(=O)OC (mixture of isomers) [Misoprostol, (11a,13E)-(±)-11,16-Dihydroxy-16-methyl-9-oxoprost-13-en-1-oic acid methyl ester] | can be dissolved in water | 20 to 40 | shudder, feeling of hard ship, excitement and diarrhea | important reduction or/and neutralization | No significant changes | reduces the undesirable effects | strong local vasodilation | hasn't been accused | irritation of the smooth uterine fibbers | male impotence | –
2 | CCCCC(C)(O)C/C=C/[C@H]1[C@H](O)CC(=O)[C@@H]1CCCCCCC(=O)O (mixture of isomers) [misoprostol acid] | – | – | – | – | – | – | Equally strong topical vasodilation | – | – | – | –
3 | CCCCC[C@H](O)/C=C/[C@H]1[C@H](O)CC(=O)[C@@H]1CCCCCCC(=O)O [alprostadil] | – | – | – | – | – | – | – | – | – | – | 8000
